Literature values, collected in patent US20240390363A1, “GRANULES CONTAINING POSACONAZOLE” (ALFRED E. TIEFENBACHER (GMBH & CO. KG), priority 2021, published 2024).

Key:
[1] = storage or stress conditions; form IV: aqueous suspension
[2] = forms compared with form I

Aqueous / water solubility [2] | SMILES | Stability of the crystalline form [1]
better water solubility | CC[C@@H]([C@H](C)O)n1ncn(-c2ccc(N3CCN(c4ccc(OC[C@@H]5CO[C@@](Cn6cncn6)(c6ccc(F)cc6F)C5)cc4)CC3)cc2)c1=O [form IV, posaconazole] | better stability in an aqueous suspension
low aqueous solubility | CC[C@@H]([C@H](C)O)n1ncn(-c2ccc(N3CCN(c4ccc(OC[C@@H]5CO[C@@](Cn6cncn6)(c6ccc(F)cc6F)C5)cc4)CC3)cc2)c1=O [Posaconazole] | –
better water solubility | CC[C@@H]([C@H](C)O)n1ncn(-c2ccc(N3CCN(c4ccc(OC[C@@H]5CO[C@@](Cn6cncn6)(c6ccc(F)cc6F)C5)cc4)CC3)cc2)c1=O [form Y, posaconazole] | as stable as form I
